Assay results as given in BindingDB's records for doi:10.3109/14756366.2011.651463 (Medical University of Bialystok, 2013).

Columns and labels:
[1] = target: Urokinase-type plasminogen activator (Homo sapiens, UniProt P00749); assay: Urokinase Amidolytic Assay; settings: pH 8.8
Procedure: (§1) Buffer and 0.1 mL of enzyme solution was added to 0.2 mL of examined compounddissolved in 0.15 M NaCl (as control 0.15 M NaCl). The buffer and the enzyme solution included: Tris buffer − 0.6 mL (pH 8.8), enzyme: urokinase (50 units/mL), synthetic substrate: S-2444 (0.1 mL, 3 mM). The mixture was incubated for 3 min at 37°C. After 20 min of incubation, the reaction was stopped by adding 0.1 ml of 50% acetic acid, and the absorbance of the released p-nitroaniline was measured at 405 nm (Spekol 1300, AnalyticJena).

Prothrombin = Prothrombin (Homo sapiens, UniProt P00734); assay: Thrombin Amidolytic Assay; settings: pH 8.4
Procedure: as §1, with “− 0.5” for “− 0.6”, “(pH 8.4),” for “(pH 8.8),”, “enzyme: thrombin (1” for “enzyme: urokinase (50”, “substrate: S-2238 (0.2” for “substrate: S-2444 (0.1”, “mL, 0.75” for “mL, 3”

Plasminogen = Plasminogen (Homo sapiens, UniProt P00747); assay: Plasmin Amidolytic Assay; settings: pH 7.4
Procedure: as §1, with “0.5” for “0.6”, “7.4),” for “8.8),”, “plasmin (0.4” for “urokinase (50”, “S-2251 (0.2” for “S-2444 (0.1”

Serine protease 1 = Serine protease 1 (Homo sapiens, UniProt P07477); assay: Tyrpsin Amidolytic Assay; settings: pH 7.5
Procedure: as §1, with “included: […]” for “included: Tris”, “− 0.5” for “− 0.6”, “(pH 7.5),” for “(pH 8.8),”, “enzyme: trypsin (0.4units/mL),” for “enzyme: urokinase (50 units/mL),”, “substrate: Bzl-L-Arg-pNA HCl (0.2” for “substrate: S-2444 (0.1”, “mL, 8” for “mL, 3”

Chain of Plasminogen (P00747 97-580 limits assumed): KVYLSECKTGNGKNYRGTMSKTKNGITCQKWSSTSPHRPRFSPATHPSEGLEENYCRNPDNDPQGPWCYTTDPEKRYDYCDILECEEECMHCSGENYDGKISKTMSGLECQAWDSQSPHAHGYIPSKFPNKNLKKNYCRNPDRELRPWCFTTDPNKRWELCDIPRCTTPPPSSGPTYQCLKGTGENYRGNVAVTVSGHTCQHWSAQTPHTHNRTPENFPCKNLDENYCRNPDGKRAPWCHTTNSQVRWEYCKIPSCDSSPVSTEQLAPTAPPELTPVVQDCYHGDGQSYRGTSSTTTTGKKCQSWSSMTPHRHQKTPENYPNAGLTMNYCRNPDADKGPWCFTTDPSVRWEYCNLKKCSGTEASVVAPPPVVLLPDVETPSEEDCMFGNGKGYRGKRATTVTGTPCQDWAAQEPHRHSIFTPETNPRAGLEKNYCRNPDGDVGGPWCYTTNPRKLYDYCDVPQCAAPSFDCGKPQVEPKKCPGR
Chain of Plasminogen (P00747 581-810 limits assumed): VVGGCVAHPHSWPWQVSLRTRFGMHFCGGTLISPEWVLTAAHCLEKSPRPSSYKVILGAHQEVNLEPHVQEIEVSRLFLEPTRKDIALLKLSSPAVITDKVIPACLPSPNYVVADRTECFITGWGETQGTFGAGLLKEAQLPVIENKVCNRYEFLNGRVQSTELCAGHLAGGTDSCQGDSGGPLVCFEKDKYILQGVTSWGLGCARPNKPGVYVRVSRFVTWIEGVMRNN
Chain of Serine protease 1 (P07477 whole entry): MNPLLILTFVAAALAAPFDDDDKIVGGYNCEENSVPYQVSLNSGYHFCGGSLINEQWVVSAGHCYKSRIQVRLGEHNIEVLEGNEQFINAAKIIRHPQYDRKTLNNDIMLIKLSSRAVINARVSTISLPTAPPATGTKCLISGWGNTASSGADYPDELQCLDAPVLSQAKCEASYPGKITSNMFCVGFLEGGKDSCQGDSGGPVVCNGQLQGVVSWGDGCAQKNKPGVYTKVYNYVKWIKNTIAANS

Structure (SMILES) | Ki [1] | Ki (Prothrombin) | Ki (Plasminogen) | Ki (Serine protease 1)
N=C(N)NCCC[C@@H](NC(=O)C1(NC(=O)[C@H](N)CO)CCCCC1)C(=O)O [H-D-Ser-1ACH-Arg-OH (8)] | 395 µM | 15 µM | – | –
N=C(N)NCCC[C@H](NC(=O)C1(NC(=O)[C@H](N)CO)CCCCC1)C(=O)O [H-D-Ser-1ACH-Arg-OH (8)] | – | – | 7.7 µM | 26.2 µM
N=C(N)NCCC[C@@H](NC(=O)[C@@H](CC1CCCCC1)NC(=O)[C@H](N)CO)C(=O)O [H-D-Ser-Cha-Arg-OH (5)] | 247 µM | 19.8 µM | – | –
N=C(N)NCCC[C@H](NC(=O)[C@H](CC1CCCCC1)NC(=O)[C@H](N)CO)C(=O)O [H-D-Ser-Cha-Arg-OH (5)] | – | – | 8.9 µM | 30.9 µM
N=C(N)NCCC[C@@H](NC(=O)[C@@H](Cc1ccccc1)NC(=O)[C@H](N)CO)C(=O)O [H-D-Ser-Phe-Arg-OH (2)] | 544 µM | 12.1 µM | – | –
N=C(N)NCCC[C@H](NC(=O)[C@H](Cc1ccccc1)NC(=O)[C@H](N)CO)C(=O)O [H-D-Ser-Phe-Arg-OH (2)] | – | – | 8.7 µM | 22.9 µM
N=C(N)NCCC[C@@H](NC(=O)[C@@H](CCC1CCCCC1)NC(=O)[C@H](N)CO)C(=O)O [H-D-Ser-homoCha-Arg-OH (6)] | 451 µM | 18.1 µM | – | –
N=C(N)NCCC[C@H](NC(=O)[C@H](CCC1CCCCC1)NC(=O)[C@H](N)CO)C(=O)O [H-D-Ser-homoCha-Arg-OH (6)] | – | – | 11.2 µM | 27.2 µM
N=C(N)NCCC[C@@H](NC(=O)[C@@H](CCc1ccccc1)NC(=O)[C@H](N)CO)C(=O)O [H-D-Ser-homoPhe-Arg-OH (3)] | 566 µM | 16.1 µM | – | –
N=C(N)NCCC[C@H](NC(=O)[C@H](CCc1ccccc1)NC(=O)[C@H](N)CO)C(=O)O [H-D-Ser-homoPhe-Arg-OH (3)] | – | – | 5.9 µM | 23.9 µM
C[C@@](Cc1ccccc1)(NC(=O)[C@H](N)CO)C(=O)N[C@@H](CCCNC(=N)N)C(=O)O [H-D-Ser-αMePhe-Arg-OH (7)] | – | – | 7.9 µM | 28.2 µM
